Data as given in patent US20150086511A1, “SURVIVAL, DIFFERENTIATION AND STRUCTURAL INTEGRATION OF HUMAN NEURAL STEM CELLS GRAFTED INTO THE ADULT RAT SPINAL CORD” (NEURALSTEM, INC., priority 2005, published 2015).

What was measured:
SOD1-G93A mice = assay: Clinical outcomes (disease onset, life span, motor score) in SOD1-G93A mice grafted with human NSCs; conditions: SOD1-G93A mice grafted with live NSCs, by immunosuppressive regimen
Protocol: Thus, five experimental groups were given different immunosuppressive treatments: the first group was treated with FK506 monotherapy (Prograf, Fujisawa Healthcare, Inc., Deerfield, Ill.) (2 μg/g/day, n=23); a second group was treated with a double immunosuppressive regimen combining FK506 and rapamycin (Calbiochem, La Jolla, Calif.) (1 μg/g/day each, n=21); a third group received triple immunosuppression with FK506, rapamycin, and MMF (CellCept, Roche, Nutley, N.J.) (1 μg/g/day each for FK506 and rapamycin, 100 μg/g/day for MMF, n=14); a fourth group was treated with CD4 antibodies (clone GK1.5, 20 μg/g/day, n=12); and a fifth group (n=10) was treated with FK506 plus rapamycin exactly as the second group, except that subjects were grafted with dead cells. Dead-cell grafts utilized cells that were exposed to repeated freezing-thawing and served to control for the potential therapeutic effects of immunosuppressants themselves on motor neuron disease. […]
Clinical outcomes were studied on the same set of data originating from five concurrent treatment groups allowed to survive to terminal illness. […] Variance in disease onset and life span was analyzed with one-way ANOVA, followed by a Fisher LSD post hoc test. Variance in motor score curves was analyzed by repeated-measures ANOVA, followed by Fisher LSD testing. […]

[1] = system: SOD1-G93A mice grafted with human NSCs; assay: Graft rejection and human NSC graft survival under immunosuppressive regimens in SOD1-G93A mice (ICC for HNu, CD4, CD8, DX5, Iba-1); conditions: compared to the double immunosuppressive regimen
Protocol: Thus, five experimental groups were given different immunosuppressive treatments: the first group was treated with FK506 monotherapy (Prograf, Fujisawa Healthcare, Inc., Deerfield, Ill.) (2 μg/g/day, n=23); a second group was treated with a double immunosuppressive regimen combining FK506 and rapamycin (Calbiochem, La Jolla, Calif.) (1 μg/g/day each, n=21); a third group received triple immunosuppression with FK506, rapamycin, and MMF (CellCept, Roche, Nutley, N.J.) (1 μg/g/day each for FK506 and rapamycin, 100 μg/g/day for MMF, n=14); a fourth group was treated with CD4 antibodies (clone GK1.5, 20 μg/g/day, n=12); and a fifth group (n=10) was treated with FK506 plus rapamycin exactly as the second group, except that subjects were grafted with dead cells. Dead-cell grafts utilized cells that were exposed to repeated freezing-thawing and served to control for the potential therapeutic effects of immunosuppressants themselves on motor neuron disease. […] Males and females were randomly admixed in the various experimental groups to minimize a systemic effect of gender on disease progression and treatment response. […]

Row | Structure (SMILES) | average disease onset (SOD1-G93A mice) [weeks] | life span (SOD1-G93A mice) [weeks] | effect of adding MMF to FK506 plus rapamycin on graft survival and infiltration by CD4/CD8 (+) cells or microglia/macrophages [1]
1 | C=CC[C@@H]1/C=C(\C)C[C@H](C)C[C@H](OC)[C@H]2O[C@@](O)(C(=O)C(=O)N3CCCC[C@H]3C(=O)O[C@H](/C(C)=C/[C@@H]3CC[C@@H](O)[C@H](OC)C3)[C@H](C)[C@@H](O)CC1=O)[C@H](C)C[C@@H]2OC [FK506] | 13.2±1.8 | 17.6±2.0 | 
2 | COc1c(C)c2c(c(O)c1C/C=C(\C)CCC(=O)OCCN1CCOCC1)C(=O)OC2 [MMF, mycophenolate mofetil] |  |  | no apparent effects
